The source made the active and inactive calls. The calls are words filed in the database; no cut-off is given here.
Legend:
Histone deacetylase 8 = target: T1, Histone deacetylase 8 (Homo sapiens, UniProt Q9BY41); assay: Inhibition of HDAC8 (unknown origin)
T1 sequence (Q9BY41 whole entry): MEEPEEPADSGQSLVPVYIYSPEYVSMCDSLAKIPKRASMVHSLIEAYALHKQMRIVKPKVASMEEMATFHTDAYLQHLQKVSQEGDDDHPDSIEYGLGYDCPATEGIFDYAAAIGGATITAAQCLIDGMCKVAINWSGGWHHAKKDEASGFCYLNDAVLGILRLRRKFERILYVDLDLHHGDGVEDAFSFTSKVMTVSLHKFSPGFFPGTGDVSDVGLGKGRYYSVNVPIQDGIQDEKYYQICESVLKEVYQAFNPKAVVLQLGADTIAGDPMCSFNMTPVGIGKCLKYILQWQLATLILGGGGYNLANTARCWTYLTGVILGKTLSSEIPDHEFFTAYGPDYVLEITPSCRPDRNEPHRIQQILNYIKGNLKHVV

[1] = target: Platelet-derived growth factor receptor beta (Homo sapiens, UniProt P09619); assay: Inhibition of PDGFRb (unknown origin)
Histone deacetylase 4 = Histone deacetylase 4 (Homo sapiens, UniProt P56524); assay: Inhibition of HDAC4 (unknown origin)
Histone deacetylase 5 = Histone deacetylase 5 (Homo sapiens, UniProt Q9UQL6); assay: Inhibition of HDAC5 (unknown origin)
[2] = target: Platelet-derived growth factor receptor alpha (Homo sapiens, UniProt P16234); assay: Inhibition of PDGFRa (unknown origin)
[3] = target: Vascular endothelial growth factor receptor 1 (Homo sapiens, UniProt P17948); assay: Inhibition of VEGFR1 (unknown origin)
[4] = target: T2, Protein deacetylase HDAC6 (Homo sapiens, UniProt Q9UBN7); assay: Inhibition of HDAC6 (unknown origin)
T2 sequence (Q9UBN7 whole entry): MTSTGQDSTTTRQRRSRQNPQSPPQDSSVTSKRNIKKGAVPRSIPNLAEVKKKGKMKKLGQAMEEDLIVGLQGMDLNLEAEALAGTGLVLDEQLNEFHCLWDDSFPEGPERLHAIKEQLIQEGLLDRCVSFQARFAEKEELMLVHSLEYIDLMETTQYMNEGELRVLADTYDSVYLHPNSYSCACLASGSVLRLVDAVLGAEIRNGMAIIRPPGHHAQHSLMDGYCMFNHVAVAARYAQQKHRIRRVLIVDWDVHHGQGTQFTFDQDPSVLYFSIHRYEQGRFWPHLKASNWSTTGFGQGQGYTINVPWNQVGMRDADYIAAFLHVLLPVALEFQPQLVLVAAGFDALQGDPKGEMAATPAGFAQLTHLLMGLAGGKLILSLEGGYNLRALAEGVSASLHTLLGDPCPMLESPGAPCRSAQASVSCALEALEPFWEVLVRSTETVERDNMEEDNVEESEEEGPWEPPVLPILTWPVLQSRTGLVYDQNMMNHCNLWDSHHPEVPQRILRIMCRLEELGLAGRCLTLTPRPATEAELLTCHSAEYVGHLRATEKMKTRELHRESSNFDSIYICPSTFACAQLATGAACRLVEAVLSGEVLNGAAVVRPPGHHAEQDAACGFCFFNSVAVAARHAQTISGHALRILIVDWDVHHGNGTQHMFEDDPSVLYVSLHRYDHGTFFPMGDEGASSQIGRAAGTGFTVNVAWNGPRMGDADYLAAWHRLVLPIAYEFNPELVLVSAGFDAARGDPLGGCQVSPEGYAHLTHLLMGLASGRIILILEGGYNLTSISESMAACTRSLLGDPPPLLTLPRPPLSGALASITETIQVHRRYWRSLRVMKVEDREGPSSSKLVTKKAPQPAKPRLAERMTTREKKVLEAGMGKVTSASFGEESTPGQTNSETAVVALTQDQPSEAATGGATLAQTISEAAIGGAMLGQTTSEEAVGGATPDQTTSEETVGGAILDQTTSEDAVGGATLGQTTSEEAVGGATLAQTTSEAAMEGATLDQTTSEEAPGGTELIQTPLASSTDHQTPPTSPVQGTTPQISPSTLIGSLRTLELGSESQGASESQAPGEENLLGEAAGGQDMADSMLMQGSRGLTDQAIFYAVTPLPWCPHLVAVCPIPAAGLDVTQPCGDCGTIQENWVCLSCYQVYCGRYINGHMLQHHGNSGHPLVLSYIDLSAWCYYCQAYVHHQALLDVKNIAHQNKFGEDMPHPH

Histone deacetylase 9 = Histone deacetylase 9 (Homo sapiens, UniProt Q9UKV0); assay: Inhibition of HDAC9 (unknown origin)
Histone deacetylase 7 = target: T3, Histone deacetylase 7 (Homo sapiens, UniProt Q8WUI4); assay: Inhibition of HDAC7 (unknown origin)
T3 sequence (Q8WUI4 whole entry): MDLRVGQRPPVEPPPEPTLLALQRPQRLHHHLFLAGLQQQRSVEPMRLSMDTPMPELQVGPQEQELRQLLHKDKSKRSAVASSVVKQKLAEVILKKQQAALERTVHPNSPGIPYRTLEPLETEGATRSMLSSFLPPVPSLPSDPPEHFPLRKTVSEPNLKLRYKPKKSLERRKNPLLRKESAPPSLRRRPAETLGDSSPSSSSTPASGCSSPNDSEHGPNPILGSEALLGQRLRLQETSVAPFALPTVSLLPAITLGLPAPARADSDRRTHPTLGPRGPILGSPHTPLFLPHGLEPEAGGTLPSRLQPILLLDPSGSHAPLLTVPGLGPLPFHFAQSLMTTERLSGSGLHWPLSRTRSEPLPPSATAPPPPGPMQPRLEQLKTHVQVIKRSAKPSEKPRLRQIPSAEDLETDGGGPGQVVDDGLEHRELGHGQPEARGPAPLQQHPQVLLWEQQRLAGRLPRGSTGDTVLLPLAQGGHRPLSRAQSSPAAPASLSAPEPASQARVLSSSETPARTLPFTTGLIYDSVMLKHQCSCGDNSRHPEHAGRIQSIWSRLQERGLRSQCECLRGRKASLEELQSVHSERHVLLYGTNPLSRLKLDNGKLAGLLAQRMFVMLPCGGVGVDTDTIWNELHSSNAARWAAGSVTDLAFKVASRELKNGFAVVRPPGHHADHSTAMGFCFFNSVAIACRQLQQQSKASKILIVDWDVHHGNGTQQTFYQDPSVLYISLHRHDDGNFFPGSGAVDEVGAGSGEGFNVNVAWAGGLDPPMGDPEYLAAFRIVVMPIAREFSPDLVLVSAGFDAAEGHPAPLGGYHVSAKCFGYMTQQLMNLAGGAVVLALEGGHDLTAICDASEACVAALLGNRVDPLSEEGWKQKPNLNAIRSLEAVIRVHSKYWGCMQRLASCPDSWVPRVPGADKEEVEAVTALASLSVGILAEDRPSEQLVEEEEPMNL

Histone deacetylase 3 = Histone deacetylase 3 (Homo sapiens, UniProt O15379); assay: Inhibition of HDAC3 (unknown origin)
Histone deacetylase 2 = Histone deacetylase 2 (Homo sapiens, UniProt Q92769)
Histone deacetylase 1 = Histone deacetylase 1 (Homo sapiens, UniProt Q13547); assay: Inhibition of HDAC1 (unknown origin)
[5] = target: Vascular endothelial growth factor receptor 2 (Homo sapiens, UniProt P35968); assay: Inhibition of VEGFR2 (unknown origin)
Histone deacetylase = type: cell-based, Homo sapiens; conditions: hela
MDA-MB-231 [6] = assay: Cytotoxicity against human MDA-MB-231 cells assessed as reversal of cell viability at 10 uM after 72 hrs by MTT assay in presence of SAHA; type: functional, cell-based
MDA-MB-231 [7] = assay: Cytotoxicity against human MDA-MB-231 cells assessed as reversal of cell viability at 200 uM after 72 hrs by MTT assay in presence of SAHA; type: functional
[8] = target: Histone deacetylase (Homo sapiens) (UniProt Q13547+O15379+Q9UBN7+Q92769+Q9UQL6+Q8WUI4+Q9BY41+Q96DB2+P56524+Q9UKV0+Q969S8); assay: Inhibition of HDAC isolated from human HeLa cells at 1 uM by fluorimetric assay; type: cell-free
Xenopus laevis = species on record: Xenopus laevis; conditions: at 10 to 100 µM

Histone deacetylase 5, sequence (Q9UQL6 whole entry): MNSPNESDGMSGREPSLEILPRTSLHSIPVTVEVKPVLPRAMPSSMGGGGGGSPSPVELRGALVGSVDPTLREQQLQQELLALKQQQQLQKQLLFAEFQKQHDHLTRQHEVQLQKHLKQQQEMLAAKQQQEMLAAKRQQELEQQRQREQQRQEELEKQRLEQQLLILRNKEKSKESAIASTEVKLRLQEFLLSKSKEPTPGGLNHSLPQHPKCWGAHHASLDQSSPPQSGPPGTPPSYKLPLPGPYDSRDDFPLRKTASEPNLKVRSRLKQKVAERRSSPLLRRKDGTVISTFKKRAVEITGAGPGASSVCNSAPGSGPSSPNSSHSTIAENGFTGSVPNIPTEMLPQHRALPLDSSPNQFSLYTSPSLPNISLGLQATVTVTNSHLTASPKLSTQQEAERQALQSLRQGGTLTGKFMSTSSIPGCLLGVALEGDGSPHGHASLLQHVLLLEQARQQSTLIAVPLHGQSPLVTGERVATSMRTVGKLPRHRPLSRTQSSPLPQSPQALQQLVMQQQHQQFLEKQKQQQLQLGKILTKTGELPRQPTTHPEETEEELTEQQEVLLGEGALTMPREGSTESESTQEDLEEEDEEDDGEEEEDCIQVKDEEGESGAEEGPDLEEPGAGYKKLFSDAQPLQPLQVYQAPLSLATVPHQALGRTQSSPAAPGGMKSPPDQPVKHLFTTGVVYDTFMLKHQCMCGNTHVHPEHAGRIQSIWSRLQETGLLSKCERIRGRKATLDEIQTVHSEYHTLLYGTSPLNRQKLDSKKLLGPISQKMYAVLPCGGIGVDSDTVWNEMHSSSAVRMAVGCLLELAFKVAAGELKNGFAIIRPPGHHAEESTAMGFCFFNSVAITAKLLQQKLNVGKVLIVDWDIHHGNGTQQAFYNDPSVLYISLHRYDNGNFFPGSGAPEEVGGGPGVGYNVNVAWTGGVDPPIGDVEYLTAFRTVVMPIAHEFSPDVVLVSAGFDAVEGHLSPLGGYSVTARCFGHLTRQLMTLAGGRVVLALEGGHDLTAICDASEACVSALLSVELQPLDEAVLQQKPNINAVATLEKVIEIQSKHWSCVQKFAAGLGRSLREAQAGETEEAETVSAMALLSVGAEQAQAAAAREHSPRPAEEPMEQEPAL
Histone deacetylase 9, sequence (Q9UKV0 whole entry): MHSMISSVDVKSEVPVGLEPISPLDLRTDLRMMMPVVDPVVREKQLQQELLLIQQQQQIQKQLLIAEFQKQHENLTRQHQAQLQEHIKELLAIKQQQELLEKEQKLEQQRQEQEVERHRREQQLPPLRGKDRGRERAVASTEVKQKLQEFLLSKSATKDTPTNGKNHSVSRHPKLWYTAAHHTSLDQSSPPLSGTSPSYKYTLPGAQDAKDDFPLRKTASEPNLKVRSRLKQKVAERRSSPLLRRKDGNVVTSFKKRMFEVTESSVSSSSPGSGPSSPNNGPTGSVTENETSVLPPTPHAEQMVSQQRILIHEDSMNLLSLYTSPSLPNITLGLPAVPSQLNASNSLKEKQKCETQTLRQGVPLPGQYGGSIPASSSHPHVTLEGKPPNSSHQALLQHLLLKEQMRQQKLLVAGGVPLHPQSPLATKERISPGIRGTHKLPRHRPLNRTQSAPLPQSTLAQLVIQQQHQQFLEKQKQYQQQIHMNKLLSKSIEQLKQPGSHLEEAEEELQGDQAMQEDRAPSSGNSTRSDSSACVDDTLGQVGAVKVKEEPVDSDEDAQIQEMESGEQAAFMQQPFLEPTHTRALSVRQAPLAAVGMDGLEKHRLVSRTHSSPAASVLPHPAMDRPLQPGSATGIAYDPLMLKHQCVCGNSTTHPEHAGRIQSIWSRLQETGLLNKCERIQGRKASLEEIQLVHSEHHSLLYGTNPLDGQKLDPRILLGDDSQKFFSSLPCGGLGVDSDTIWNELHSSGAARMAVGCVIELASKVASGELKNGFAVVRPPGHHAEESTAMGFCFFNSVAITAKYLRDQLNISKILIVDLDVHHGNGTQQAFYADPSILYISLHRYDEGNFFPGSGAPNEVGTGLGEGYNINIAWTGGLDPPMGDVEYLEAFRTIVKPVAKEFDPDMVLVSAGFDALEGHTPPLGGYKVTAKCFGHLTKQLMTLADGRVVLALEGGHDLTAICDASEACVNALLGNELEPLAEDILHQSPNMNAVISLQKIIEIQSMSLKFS
Histone deacetylase 4, sequence (P56524 whole entry): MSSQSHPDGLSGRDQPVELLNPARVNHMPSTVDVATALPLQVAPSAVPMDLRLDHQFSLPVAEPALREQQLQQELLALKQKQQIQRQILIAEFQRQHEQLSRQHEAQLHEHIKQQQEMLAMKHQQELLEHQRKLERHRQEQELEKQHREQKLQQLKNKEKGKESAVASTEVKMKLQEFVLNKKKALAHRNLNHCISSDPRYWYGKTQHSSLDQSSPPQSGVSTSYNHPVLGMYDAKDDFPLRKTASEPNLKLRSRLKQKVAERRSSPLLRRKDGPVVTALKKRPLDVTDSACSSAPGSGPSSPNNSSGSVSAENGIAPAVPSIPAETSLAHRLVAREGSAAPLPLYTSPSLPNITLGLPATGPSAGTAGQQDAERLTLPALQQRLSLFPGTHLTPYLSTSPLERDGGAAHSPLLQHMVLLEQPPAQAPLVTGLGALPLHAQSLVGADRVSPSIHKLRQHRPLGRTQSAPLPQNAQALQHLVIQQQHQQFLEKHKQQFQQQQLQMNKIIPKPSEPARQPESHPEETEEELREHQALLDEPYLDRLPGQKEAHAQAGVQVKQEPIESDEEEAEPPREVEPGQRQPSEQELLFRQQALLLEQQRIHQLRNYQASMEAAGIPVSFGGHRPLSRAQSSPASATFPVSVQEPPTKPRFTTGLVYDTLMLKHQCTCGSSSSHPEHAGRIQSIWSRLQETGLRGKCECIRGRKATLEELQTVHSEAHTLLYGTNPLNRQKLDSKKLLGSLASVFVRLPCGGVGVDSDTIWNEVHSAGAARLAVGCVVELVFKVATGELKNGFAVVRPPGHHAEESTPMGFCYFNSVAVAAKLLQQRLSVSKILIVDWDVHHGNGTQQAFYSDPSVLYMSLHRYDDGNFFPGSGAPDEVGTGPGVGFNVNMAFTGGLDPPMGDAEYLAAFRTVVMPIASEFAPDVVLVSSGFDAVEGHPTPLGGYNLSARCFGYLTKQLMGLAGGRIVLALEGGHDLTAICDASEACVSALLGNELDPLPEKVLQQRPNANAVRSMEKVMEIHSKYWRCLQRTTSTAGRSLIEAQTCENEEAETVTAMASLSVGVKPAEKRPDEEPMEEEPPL
Vascular endothelial growth factor receptor 1, sequence (P17948 whole entry): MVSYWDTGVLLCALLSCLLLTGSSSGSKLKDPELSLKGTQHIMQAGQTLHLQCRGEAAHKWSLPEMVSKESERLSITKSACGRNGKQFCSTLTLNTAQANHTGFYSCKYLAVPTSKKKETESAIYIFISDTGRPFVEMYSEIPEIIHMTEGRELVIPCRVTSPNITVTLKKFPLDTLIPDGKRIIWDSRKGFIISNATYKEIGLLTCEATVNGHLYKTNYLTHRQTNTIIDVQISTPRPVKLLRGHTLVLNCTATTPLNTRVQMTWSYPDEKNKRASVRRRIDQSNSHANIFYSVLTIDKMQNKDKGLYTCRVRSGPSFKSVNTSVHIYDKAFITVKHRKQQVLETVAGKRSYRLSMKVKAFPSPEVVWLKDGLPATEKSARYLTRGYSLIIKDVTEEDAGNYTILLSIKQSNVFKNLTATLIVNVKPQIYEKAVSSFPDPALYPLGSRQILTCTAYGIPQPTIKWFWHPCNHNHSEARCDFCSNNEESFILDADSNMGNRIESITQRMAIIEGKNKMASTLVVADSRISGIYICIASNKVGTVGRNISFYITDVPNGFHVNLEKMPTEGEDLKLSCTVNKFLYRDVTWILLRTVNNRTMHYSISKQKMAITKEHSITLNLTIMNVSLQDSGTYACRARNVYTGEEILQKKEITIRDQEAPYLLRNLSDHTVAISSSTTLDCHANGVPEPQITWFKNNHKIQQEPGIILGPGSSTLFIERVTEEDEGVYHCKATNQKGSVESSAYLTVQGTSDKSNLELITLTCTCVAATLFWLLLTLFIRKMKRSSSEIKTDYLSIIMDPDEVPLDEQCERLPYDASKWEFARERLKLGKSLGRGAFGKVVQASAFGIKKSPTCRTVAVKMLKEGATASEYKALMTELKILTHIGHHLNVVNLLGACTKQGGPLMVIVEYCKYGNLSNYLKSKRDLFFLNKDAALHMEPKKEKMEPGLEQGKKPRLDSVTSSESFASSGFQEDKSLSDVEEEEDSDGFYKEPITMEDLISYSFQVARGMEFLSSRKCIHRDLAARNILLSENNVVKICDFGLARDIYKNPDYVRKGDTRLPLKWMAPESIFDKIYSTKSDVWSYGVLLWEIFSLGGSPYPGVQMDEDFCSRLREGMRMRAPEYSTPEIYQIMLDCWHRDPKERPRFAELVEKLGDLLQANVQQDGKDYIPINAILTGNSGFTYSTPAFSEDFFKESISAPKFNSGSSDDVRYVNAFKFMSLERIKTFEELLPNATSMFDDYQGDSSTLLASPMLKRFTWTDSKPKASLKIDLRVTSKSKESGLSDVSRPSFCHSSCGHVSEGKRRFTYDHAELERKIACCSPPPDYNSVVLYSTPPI
Histone deacetylase 2, sequence (Q92769 whole entry): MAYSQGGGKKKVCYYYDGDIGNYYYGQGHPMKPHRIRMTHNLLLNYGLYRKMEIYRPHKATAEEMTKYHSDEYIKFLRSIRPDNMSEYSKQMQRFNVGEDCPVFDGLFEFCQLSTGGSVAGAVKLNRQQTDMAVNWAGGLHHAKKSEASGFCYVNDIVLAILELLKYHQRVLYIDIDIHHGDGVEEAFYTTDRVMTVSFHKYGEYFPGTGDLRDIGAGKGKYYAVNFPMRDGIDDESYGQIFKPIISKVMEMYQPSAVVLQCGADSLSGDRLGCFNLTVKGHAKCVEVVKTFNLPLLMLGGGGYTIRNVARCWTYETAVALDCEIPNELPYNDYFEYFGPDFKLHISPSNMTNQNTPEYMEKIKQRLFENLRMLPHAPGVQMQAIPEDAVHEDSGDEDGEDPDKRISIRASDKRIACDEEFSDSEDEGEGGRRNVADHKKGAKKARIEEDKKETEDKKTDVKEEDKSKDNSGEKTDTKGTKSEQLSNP

SMILES	IC50 [1]	IC50 (Histone deacetylase 4)	IC50 (Histone deacetylase 5)	IC50 [2]	IC50 [3]	IC50 (Histone deacetylase 9)	IC50 (Histone deacetylase 7)	IC50 (Histone deacetylase 3) [nM]	IC50 (Histone deacetylase 2) [nM]	IC50 (Histone deacetylase 1) [nM]	IC50 [5]	IC50 ([1]; read-out: IC50) [nM]	IC50 ([5]; read-out: IC50) [nM]	further results
Nc1ccccc1NC(=O)CCCCC(=O)Nc1ccc2c(c1)/C(=C/c1ccc[nH]1)C(=O)N2	Not Active	Not Active	Not Active	Not Active	Not Active	Not Active	Not Active	2.42	3290	1260	Not Active			IC50 (Histone deacetylase 8): Not Active; IC50 [4]: Not Active
O=C(CCCCC(=O)Nc1ccc2c(c1)/C(=C/c1ccc[nH]1)C(=O)N2)NO		Not Active	Not Active	Not Active		Not Active	Not Active	9.77	20.4	9.37		518	290	IC50 (Histone deacetylase 8; read-out: IC50): 312 nM; IC50 ([3]; read-out: IC50): 205 nM; IC50 (Histone deacetylase): 935 nM; IC50 ([4]; read-out: IC50): 1.61 nM
O=C(CCCCCCC(=O)Nc1ccccc1)NO [VORINOSTAT]		Not Active	Not Active			Not Active	Not Active							
CSCCCNC(=O)c1ccc2c(c1)NC(=O)/C2=C\c1[nH]c(C)cc1C	Not Active				Not Active						Not Active			
Nc1ccccc1NC(=O)CCCCCCC(=O)Nc1ccc2c(c1)/C(=C/c1ccc[nH]1)C(=O)N2	Not Active	Not Active	Not Active	Not Active	Not Active	Not Active	Not Active	394	2230	373	Not Active			IC50 (Histone deacetylase 8): Not Active; IC50 ([4]; read-out: IC50): 4610 nM
O=C1Nc2ccc(O)cc2/C1=C/c1ccc[nH]1												637	405	IC50 ([2]; read-out: IC50): 406 nM; IC50 ([3]; read-out: IC50): 116 nM; Activity (MDA-MB-231 [6]): Active; Activity (MDA-MB-231 [7]): 70%
Cc1cc(C)c(/C=C2\C(=O)Nc3ccc(NC(=O)CCCCCCC(=O)NO)cc32)[nH]1	Not Active			Not Active	Not Active						Not Active			IC50 (Histone deacetylase): 443 nM; inhibition [8]: > 20%
Cc1cc(C)c(/C=C2\C(=O)Nc3ccccc32)[nH]1														inhibition (Xenopus laevis): Active
CSCCCNC(=O)c1ccc2c(c1)/C(=C/c1[nH]c(C)cc1C)C(=O)N2					Not Active							8	38	
